Assay results: patent US20040186166A1, “Cannabinoid analogs as peroxisome proliferator activated nuclear receptor gamma activators” (priority 2002, published 2004)
Where “and” joins values, the source holds several entries; their conditions need not be identical. Equal values may be shown once.

Columns and labels:
Gal4-DBD/mPPARγ = molecular target: T1, Gal4-DBD/mPPARγ (Mus musculus, UniProt P37238); test: Gal4-dependent MH100-Luc reporter, Gal4-DBD/mPPARγ; format: cell-based; details: HEK293 cells
T1 construct: expressed in transfected cells; host or cells: HEK293
T1 sequence (P37238 1-475 isoform P37238-2): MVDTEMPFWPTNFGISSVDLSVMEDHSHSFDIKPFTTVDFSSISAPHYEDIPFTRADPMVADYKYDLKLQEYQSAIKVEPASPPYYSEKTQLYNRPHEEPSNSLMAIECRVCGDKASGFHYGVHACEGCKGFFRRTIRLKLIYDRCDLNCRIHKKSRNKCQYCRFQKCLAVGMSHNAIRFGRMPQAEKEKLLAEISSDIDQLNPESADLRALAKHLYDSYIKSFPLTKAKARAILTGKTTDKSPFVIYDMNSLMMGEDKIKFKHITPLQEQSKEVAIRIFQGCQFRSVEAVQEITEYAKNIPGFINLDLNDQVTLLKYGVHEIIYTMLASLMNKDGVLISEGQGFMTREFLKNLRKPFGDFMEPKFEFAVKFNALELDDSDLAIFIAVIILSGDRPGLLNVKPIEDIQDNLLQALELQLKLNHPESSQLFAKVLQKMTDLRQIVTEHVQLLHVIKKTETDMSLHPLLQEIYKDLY
Source text: The-pCMX-Gal4-mPPARγ1 was constructed by fusing the mPPARγ1 coding sequence to the yeast GAL4 DNA binding domain (amino acid 1-147) in the pCMX vector. The AF-2 helix-truncated mutant of mPPARγ1 (PPARγ ΔAF2) was generated by PCR amplification-to introduce a stop codon and a NheI restriction site after amino acid 489, and then-subcloned into the pCMX vector. The PPRE-TK-LUC, MH100-TK-LUC-and DR1-TK-LUC reporters have been described previously (Forman et al., Cell 83:803-812, 1995; Umesono et al., Cell 65:1255-1266, 1991).
For PPARγ activation assay, HEK293 cells were plated in 12-well cell culture plates and maintained in Dulbecco's modified Eagle's medium (DMEM) supplemented with 10% fetal bovine serum (FBS) at 37° C. under 5% CO2. […] The average normalized luciferase activity was determined via triplicate experiments. […]
To further confirm activation of PPARγ by AJA, and also to determine PPARγ species specificity, the ability of AJA to activate the chimeric Gal4-DBD/PPAR fusion proteins on a Gal4-dependent MH100-Luc reporter was assessed (FIG. 4A). The PPARs were expressed as Gal4 DBD fusion proteins, which bind to the UAS promoter containing 4 copies of a synthetic Gal4 binding site upstream of the minimal thymidine kinase (TK) promoter. […]

human IL-8 promoter = test: IL-8 promoter luciferase assay, HeLa cells with wild type PPARγ; format: cell-based
Procedure: For PPARγ activation assay, HEK293 cells were plated in 12-well cell culture plates and maintained in Dulbecco's modified Eagle's medium (DMEM) supplemented with 10% fetal bovine serum (FBS) at 37° C. under 5% CO2. Cells were changed to phenol red-free DMEM supplemented with 10% charcoal-stripped fetal bovine serum 3 hours before transfection by a standard calcium-phosphate precipitation method. Twelve hours after transfection, the cells were washed with phosphate-buffered saline (PBS) and fed again with fresh medium containing the indicated concentrations of compounds. After 36 hours, cells were harvested for β-galactosidase and luciferase activities as described previously (Li et al., Proc Natl Acad Sci USA 94:8479-84, 1997). The average normalized luciferase activity was determined via triplicate experiments. For IL-8 promoter assay, HeLa cells were maintained and transfected in the same way as described above. After transfection, cells were recovered for 4 hours before treatment with AJA, GW347845, or solvent. After 3-4 hours, cells were treated with or without 25 nM of phorbol myristate acetate (PMA) for 24 hours.
The IL-8 luciferase reporter controlled by the human IL-8 promoter (-97/-69) was cotransfected with mPPARγ or mPPARγ ΔAF2 mutant into HeLa cells. After transfection, cells were treated with AJA, GW347845 or solvent after PMA treatment for 24 hours. This was performed by determining the effect of AJA on IL-8 promoter activity and the role of PPARγ in this process. IL-8 is a biomarker for inflammation, and reduction of IL-8 levels correlates with a decrease in inflammation. The involvement of PPARγ in regulating IL-8 promoter activity was determined by comparing the IL-8 promoter activity in the presence of wild type PPARγ or its ΔAF2 mutant. In the experiment illustrated in FIG. 6A, PMA stimulated IL-8 promoter activity 3 fold, which was set as 100% promoter activity.

CCCCCCC(C)(C)c1cc(O)c2c(c1)OC(C)(C)[C@@H]1CC=C(C(=O)O)C[C@@H]21 [AJA, dimethylheptyl-THC-11-oic acid]
activation of Gal4-DBD/mPPARγ reporter gene expression (Gal4-DBD/mPPARγ; 20 μM AJA): activated the reporter gene expression significantly
EC50 (Gal4-DBD/mPPARγ; EC-50 for activation of PPARγ, estimated, 10-60 μM AJA, luciferase activity): ~13 µM and 13 µM
reduction of PMA-stimulated IL-8 promoter activity (human IL-8 promoter; 20 μM, HeLa cells): about 40%
significance of the reduction of IL-8 promoter activity (human IL-8 promoter; 10 and 20 μM AJA): statistically significant
